Reference: patent US11071731B2, “Allosteric modulators of the mu opioid receptor” (Chiromics, LLC, priority 2017, dated 2021)

Key:
mu opioid receptor (MOR) [1] = molecular target: T1, mu opioid receptor (MOR) (Homo sapiens, UniProt P35372); assay: PathHunter β-arrestin recruitment assay, PAM mode with EC20 endomorphin-1; type: cell-based; details: for allosteric activity for β-arrestin recruitment: EC20 endomorphin-1 concentration of 4.5 nM
How it was run: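 Enzyme fragment complementation read-out: β-gal ED fragment fused to receptor, EA fused to β-arrestin, recruitment restoring β-gal activity detected by chemiluminescence. EC50 and percent maximal response derived for each compound.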

mu opioid receptor (MOR) [2] = molecular target: T1, mu opioid receptor (MOR); assay: Hit Hunter cAMP signaling assay (adenylyl cyclase inhibition), PAM mode with EC20 endomorphin-1; type: cell-based; details: for allosteric activity for cAMP signaling: EC20 endomorphin-1 concentration of 0.45 nM; for Max. Response: cAMP
[3] = molecular target: mu opioid receptor subtype OPRM1 (Homo sapiens, UniProt P35372); assay: β-arrestin recruitment assay, antagonist format; type: cell-based; details: Table 18
Sequence of mu opioid receptor subtype OPRM1 (P35372 whole entry, the tested form may be a part): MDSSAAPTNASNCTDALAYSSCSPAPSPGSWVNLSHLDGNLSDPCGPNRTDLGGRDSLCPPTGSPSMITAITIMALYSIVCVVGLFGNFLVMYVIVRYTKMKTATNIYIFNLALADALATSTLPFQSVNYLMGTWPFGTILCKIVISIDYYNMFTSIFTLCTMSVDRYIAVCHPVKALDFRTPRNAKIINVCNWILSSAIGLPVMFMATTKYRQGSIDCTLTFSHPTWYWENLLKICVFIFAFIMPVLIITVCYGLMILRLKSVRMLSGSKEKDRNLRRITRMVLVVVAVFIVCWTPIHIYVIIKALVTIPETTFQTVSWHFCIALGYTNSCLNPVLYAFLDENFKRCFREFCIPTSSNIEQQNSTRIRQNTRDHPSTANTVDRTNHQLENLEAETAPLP
Description: Beta-Arrestin Pathway: The PathHunter β-arrestin assay monitors the activation of a GPCR in a homogenous, non-imaging assay format using a technology developed by DiscoveRx called Enzyme Fragment Complementation (EFC) with beta-galactosidase (β-Gal) as the functional reporter. […] EA is fused to β-Arrestin and ED is fused to the GPCR of interest. When the GPCR is activated and β-arrestin is recruited to the receptor, ED and EA complementation occurs, restoring β-gal activity, which is measured using chemiluminescent PathHunter Detection Reagents.
Similar results were obtained when agonist and antagonist activity were assayed using cAMP signaling as the readout.

MOR [4] = molecular target: T2, MOR (Homo sapiens, UniProt P35372); assay: cell-based; details: EC20 morphine agonism of MOR; for EC50: RC50, β-arrestin; for Max. Response: β-arrestin
T2 sequence (P35372 whole entry): as the sequence (P35372 whole entry, the tested form may be a part) above

MOR [5] = molecular target: T2, MOR; assay: cell-based; details: EC20 morphine agonism of MOR; for EC50: RC50, cAMP; for Max. Response: cAMP
MOR [6] = molecular target: T2, MOR; assay: cell-based; details: EC20 Oxycodone agonism of MOR; for EC50: RC50, β-arrestin; for Max. Response: β-arrestin
MOR [7] = molecular target: T2, MOR; assay: cell-based; details: EC20 Oxycodone agonism of MOR; for EC50: RC50, cAMP; for Max. Response: cAMP
[8] = maximal response for β-arrestin recruitment
[9] = β-arrestin recruitment, read-out: β-arr. EC50
[10] = adenylyl cyclase inhibition, read-out: cAMP EC50
[11] = maximal response for adenylyl cyclase inhibition
[12] = β-arrestin, EC20 EM-1 agonism of MOR
[13] = β-arrestin, EC20 EM-1 agonism of MOR, read-out: RC50 (the source's name)
[14] = RC50, cAMP, EC20 EM-1 agonism of MOR
[15] = cAMP EC50, adenylyl cyclase inhibition
[16] = maximal response, β-arrestin recruitment
[17] = maximal response, adenylyl cyclase inhibition

T1 sequence (P35372 whole entry, the tested form may be a part): as above

SMILES	allosteric activity for β-arrestin recruitment (mu opioid receptor (MOR) [1])	β-arr Max. Resp. (mu opioid receptor (MOR) [1]; [8])	EC50 (mu opioid receptor (MOR) [1]; [9])	allosteric activity for cAMP signaling (mu opioid receptor (MOR) [2])	EC50 (mu opioid receptor (MOR) [2]; [10])	cAMP Max. Resp. (mu opioid receptor (MOR) [2]; [11])	IC50 [3]	EC50 (mu opioid receptor (MOR) [2]; [15])	β-arr Max. Resp. (mu opioid receptor (MOR) [1]; [16])	cAMP Max. Resp. (mu opioid receptor (MOR) [2]; [17])	also measured
COc1ccc(C2C(C(F)(F)F)CCN2S(=O)(=O)c2ccc(Cl)cc2)cc1Br (single isomer, unassigned) [Compound 108]	moderate positive allosteric effect	F (F represents a maximal response of > 60%)	> 2100 nM	moderate positive allosteric effect	> 2100 nM	E (E represents a maximal response of 40-60%)	> 25 µM				
COc1ccc(C2CC(C(F)(F)F)CN2S(=O)(=O)c2ccc(Cl)cc2)cc1Br (single isomer, unassigned) [Compound 109]	moderate positive allosteric effect	F (F represents a maximal response of > 60%)	> 2100 nM	moderate positive allosteric effect	< 700 nM	E (E represents a maximal response of 40-60%)	> 25 µM				
COc1ccc(C2N(S(=O)(=O)c3ccc(Cl)cc3)CCC2(F)F)cc1Br (single isomer, unassigned) [Compound 110]	moderate positive allosteric effect	F (F represents a maximal response of > 60%)	> 2100 nM	moderate positive allosteric effect	> 2100 nM	F (F represents a maximal response of > 60%)	> 25 µM				
Fc1cnc(Cl)nc1N1CCCCC1c1cccc(C(F)(F)F)c1 (single isomer, unassigned) [compound 8]		F (F represents a maximal response of > 60%)	< 700 nM			F (F represents a maximal response of > 60%)		700 to 2100 nM			Max. Response (mu opioid receptor (MOR) [1]; [12]): 213; EC50 (mu opioid receptor (MOR) [1]; [13]): 330 nM; EC50 (mu opioid receptor (MOR) [2]; [14]): 840 nM; Max. Response (mu opioid receptor (MOR) [2]; EC20 EM-1 agonism of MOR): 76; EC50 (MOR [4]): 7110 nM; Max. Response (MOR [4]): 487; EC50 (MOR [5]): 2000 nM; Max. Response (MOR [5]): 44; EC50 (MOR [6]): 12900 nM; Max. Response (MOR [6]): 343; EC50 (MOR [7]): 1910 nM; Max. Response (MOR [7]): 56
COc1ccc(C2C3CCC(C3)N2S(=O)(=O)c2ccc(Cl)cc2)cc1Br (stereo not shown) [Compound 177]	moderate positive allosteric effect	F (F represents a maximal response of > 60%)	> 2100 nM	moderate positive allosteric effect	> 2100 nM	E (E represents a maximal response of 40-60%)	> 25 µM				
Fc1cnc(Cl)nc1N1CCCCC1c1cccc(C(F)(F)F)n1 (stereo not shown) [compound 123]		F (F represents a maximal response of > 60%)	700 to 2100 nM			E (E represents a maximal response of 40-60%)		< 700 nM			Max. Response (mu opioid receptor (MOR) [1]; [12]): 190; EC50 (mu opioid receptor (MOR) [1]; [13]): 1020 nM; EC50 (mu opioid receptor (MOR) [2]; [14]): 590 nM; Max. Response (mu opioid receptor (MOR) [2]; EC20 EM-1 agonism of MOR): 43; EC50 (MOR [4]): 14100 nM; Max. Response (MOR [4]): 59; EC50 (MOR [5]): > 25000 nM; Max. Response (MOR [5]): 0; EC50 (MOR [6]): > 25000 nM; Max. Response (MOR [6]): 17; EC50 (MOR [7]): > 25000 nM; Max. Response (MOR [7]): 0
COC(=O)c1ccc(N2CCCCC2c2ccc(F)c(Cl)c2)cc1 (stereo not shown) [compound 477]			> 2100 nM					> 2100 nM	F (F represents a maximal response of > 60%)	D (D represents a maximal response of < 40%)	
COC(=O)c1ccc(N2CCCCC2c2cccc(C(F)(F)F)n2)cc1 (stereo not shown) [compound 478]			> 2100 nM					> 2100 nM	F (F represents a maximal response of > 60%)	D (D represents a maximal response of < 40%)	
Fc1ccc(C2CCCCN2c2cccnc2N2CCOCC2)cc1Cl (stereo not shown) [compound 479]			> 2100 nM		> 2100 nM				F (F represents a maximal response of > 60%)	D (D represents a maximal response of < 40%)	
Cc1nccc(N2CCCCC2c2ccc(F)c(Cl)c2)n1 (stereo not shown) [compound 480]			> 2100 nM					> 2100 nM	D (D represents a maximal response of < 40%)	D (D represents a maximal response of < 40%)	
Fc1cnc(Cl)nc1N1CC(F)CC1c1cccc(C(F)(F)F)n1 (stereo not shown) [compound 481]			> 2100 nM		> 2100 nM				D (D represents a maximal response of < 40%)	D (D represents a maximal response of < 40%)	
Fc1cnc(Cl)nc1N1CC(F)(F)CC1c1cccc(C(F)(F)F)n1 (stereo not shown) [compound 482]			> 2100 nM		> 2100 nM				D (D represents a maximal response of < 40%)	D (D represents a maximal response of < 40%)	
COc1ccc(C2CCCCN2S(=O)(=O)c2ccn(C)n2)cc1Br (stereo not shown) [compound 483]			> 2100 nM					> 2100 nM	D (D represents a maximal response of < 40%)	D (D represents a maximal response of < 40%)	
